One test addresses T1, Cav3.2 channel (Homo sapiens, UniProt O95180).
T1 construct: expressed in transfected cells; host or cells: HEK-293, tetracycline inducible expression system (Invitrogen)
As to the kind of experiment: Whole-cell patch clamp of T-type Cav3.2 channel expressed in HEK293 cells. The conditions noted are these: for IC50: Table 1, tested at at least 4 concentrations, read-out: IC50; for inhibition at 1 µM: HEK293, Table 1 primary screening. It is filed as cell-based. Background: Patch clamp records ionic current or voltage across a cell membrane.

In test [1] the test system is SNI mice. As to the kind of experiment: Spared nerve injury (SNI) mice, Hargreaves thermal test. It counts as in vivo, mouse. The conditions noted are these: 30 mg/kg, 0.2 mL I.P. The procedure: FIG. 1A. Examples of compounds that mitigate neuropathic pain induced by Spared Nerve Injury (SNI) in mice. The withdrawal latencies of the mice's left hindpaws (injured site) in response to thermal stimulation (Hargreaves test). Each SNI mouse received either EXAMPLE (EX)-11, -14, -38, -62, or 113, or gabapentin, as benchmark (each 30 mg/kg, 0.2 mL I.P.), or vehicle (0.2 mL I.P. 2% DMSO in 0.5% Hydroxyl Propyl Cellulose, HPC). […] 40 seconds were cut off in order to prevent tissue damage (n=8 per group).
(§1) T-channel specific inhibitors are not yet available for clinical treatment of neuropathic pain. The spared nerve injury (SNI) model, one of the reliable neuropathic pain models in mice and rats (Decosterd and Woolf, 2000), was used to assess the effects of the representative compounds.
(§2) Of the three branches of the sciatic nerve, the tibial and common peroneal nerves of the mice (C57BL/6, male, 25-30 g, Harlan) were cut and ligated, leaving the sural nerve intact. Pre-surgery baselines (100%) of the thermal and mechanical pain thresholds of the ipsilateral hind paws were measured using the Hargreaves thermal stimulator (Hargreaves et al., 1988) and von Frey hair monofilaments (up-down method, Chaplan et al., 1994), respectively. Mice underwent the SNI surgery on their left hind leg. Two weeks post-surgery, the thermal thresholds of each mouse were reassessed.
(§3) EXAMPLE-11, 14, 38, 62, or 113 (FIGS. 1A and B) and EXAMPLE-12, 16, 19, 39, or 44 (FIGS. 2A and B) were administered at 30 mg/kg (0.2 mL I.P.) in a vehicle (pure DMSO to dissolve the powder first and then add 0.5% Hydroxyl Propyl Cellulose, HPC, to contain 2% DMSO in injection solution). All drug solutions used the same vehicle, unless specified otherwise.

Test [2] deals with SNI mice. The test is described as follows: Spared nerve injury (SNI) mice, von Frey monofilament test. It counts as in vivo, mouse. The conditions noted are these: 30 mg/kg, 0.2 mL I.P.
Source text: FIG. 1B. Mechanical pain threshold assessment (using von Frey monofilament test) of the same cohort of SNI mice's left hindpaws.
as §1, §2, §3

Another test concerns CFA mice. As to the kind of experiment: Complete Freund's Adjuvant (CFA)-induced inflammatory pain in mice, von Frey test. It counts as in vivo, mouse. As for the experimental part: FIG. 7. Effects of EXAMPLE-96, 107 or 115 (each 30 mg/kg, I.P.) or gabapentin (as a benchmark, 100 mg/kg, I.P) on Complete Freund's Adjuvant (CFA)-induced inflammation in male, mice (C57BL/6, ˜2 months old; n=8 mice per group). Mechanical pain threshold assessment of CFA mice's left hindpaws were measured using von Frey monofilament test at 0.5, 1, 2, 4, and 6 hours after treatment.
Because knockout or antisense knockdown of the Cav3.2 isoform produces analgesic effects in neuropathic pain as well as in inflammatory pain in mice (Choi et al., 2007), we used the Complete Freund adjuvant (CFA)-inflammatory pain in mice to investigate the drug effects. EXAMPLE-96, -115, and -107 (each at 30 mg/kg, I.P.) and a reference gabapentin (100 mg/kg, I.P.) was individually administered to mice that had CFA-induced inflammation on their left hindpaws.

SMILES strings stand for the structures. “Also recorded” adds a separate entry of the source.

T1 sequence (O95180 whole entry): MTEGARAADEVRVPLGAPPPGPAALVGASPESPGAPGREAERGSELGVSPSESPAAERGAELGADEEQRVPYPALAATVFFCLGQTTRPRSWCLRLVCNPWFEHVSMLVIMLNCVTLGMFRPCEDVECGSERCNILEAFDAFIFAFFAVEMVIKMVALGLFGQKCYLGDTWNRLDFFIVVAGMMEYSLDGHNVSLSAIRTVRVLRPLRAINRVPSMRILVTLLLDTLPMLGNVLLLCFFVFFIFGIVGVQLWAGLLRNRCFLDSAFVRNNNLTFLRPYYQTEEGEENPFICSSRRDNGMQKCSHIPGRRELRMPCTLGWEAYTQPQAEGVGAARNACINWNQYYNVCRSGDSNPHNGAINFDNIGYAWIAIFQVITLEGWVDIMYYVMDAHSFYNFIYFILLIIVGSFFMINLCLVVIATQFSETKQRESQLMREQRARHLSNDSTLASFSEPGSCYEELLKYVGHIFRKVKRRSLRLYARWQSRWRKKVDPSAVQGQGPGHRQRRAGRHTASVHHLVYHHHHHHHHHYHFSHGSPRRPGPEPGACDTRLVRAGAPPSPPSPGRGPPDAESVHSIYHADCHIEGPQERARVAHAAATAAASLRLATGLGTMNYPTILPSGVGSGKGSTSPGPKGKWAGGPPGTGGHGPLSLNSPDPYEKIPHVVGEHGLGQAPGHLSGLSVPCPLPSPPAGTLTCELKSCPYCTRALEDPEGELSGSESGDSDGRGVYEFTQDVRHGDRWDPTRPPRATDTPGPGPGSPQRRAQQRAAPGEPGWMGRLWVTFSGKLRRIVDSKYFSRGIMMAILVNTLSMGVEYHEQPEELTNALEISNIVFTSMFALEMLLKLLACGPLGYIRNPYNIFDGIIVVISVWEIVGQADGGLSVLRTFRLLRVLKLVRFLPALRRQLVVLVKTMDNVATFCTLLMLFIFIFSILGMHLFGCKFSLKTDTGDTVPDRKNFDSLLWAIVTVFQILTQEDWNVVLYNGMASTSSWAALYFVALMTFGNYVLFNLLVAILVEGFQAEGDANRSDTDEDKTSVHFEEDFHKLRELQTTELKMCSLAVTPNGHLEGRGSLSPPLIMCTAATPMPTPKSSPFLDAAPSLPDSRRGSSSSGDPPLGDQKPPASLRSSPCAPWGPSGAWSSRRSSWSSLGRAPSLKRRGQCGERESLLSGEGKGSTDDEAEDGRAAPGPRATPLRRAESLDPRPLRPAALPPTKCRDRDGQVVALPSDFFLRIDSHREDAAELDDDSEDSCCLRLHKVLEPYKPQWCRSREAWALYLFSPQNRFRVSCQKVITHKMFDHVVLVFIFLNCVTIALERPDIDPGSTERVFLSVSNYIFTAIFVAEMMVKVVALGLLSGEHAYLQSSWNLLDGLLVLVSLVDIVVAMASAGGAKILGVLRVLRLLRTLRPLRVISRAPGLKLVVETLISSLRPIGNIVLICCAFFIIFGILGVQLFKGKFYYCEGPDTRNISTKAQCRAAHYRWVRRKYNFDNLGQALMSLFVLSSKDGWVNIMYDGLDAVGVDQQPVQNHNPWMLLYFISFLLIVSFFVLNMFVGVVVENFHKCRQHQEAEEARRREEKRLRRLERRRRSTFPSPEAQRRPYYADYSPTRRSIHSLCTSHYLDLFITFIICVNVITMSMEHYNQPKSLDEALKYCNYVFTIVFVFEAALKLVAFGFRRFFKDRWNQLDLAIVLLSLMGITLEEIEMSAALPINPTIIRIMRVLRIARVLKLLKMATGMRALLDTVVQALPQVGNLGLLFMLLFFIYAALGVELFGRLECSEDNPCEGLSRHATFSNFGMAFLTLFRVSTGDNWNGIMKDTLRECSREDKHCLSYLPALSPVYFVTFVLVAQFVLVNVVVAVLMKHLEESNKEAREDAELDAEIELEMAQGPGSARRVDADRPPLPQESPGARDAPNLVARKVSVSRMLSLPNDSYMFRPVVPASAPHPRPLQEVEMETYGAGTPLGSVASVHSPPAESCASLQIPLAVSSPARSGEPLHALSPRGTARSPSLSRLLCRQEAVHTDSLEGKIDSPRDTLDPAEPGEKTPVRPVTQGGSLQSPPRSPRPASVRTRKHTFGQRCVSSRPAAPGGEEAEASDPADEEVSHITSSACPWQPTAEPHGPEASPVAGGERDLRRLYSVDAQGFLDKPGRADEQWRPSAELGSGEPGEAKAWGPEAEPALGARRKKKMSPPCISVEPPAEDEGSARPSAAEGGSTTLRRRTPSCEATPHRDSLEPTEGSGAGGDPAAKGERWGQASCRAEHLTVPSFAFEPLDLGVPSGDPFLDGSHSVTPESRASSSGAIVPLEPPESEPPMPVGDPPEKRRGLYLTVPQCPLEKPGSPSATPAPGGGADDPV

Broadly, the IC50 is the concentration that inhibits the measured activity by half. Turning to `CC(C)(C)CCN1CCC2(CC1)CC2NC(=O)c1cc(Cl)cc(Cl)c1` (centres unmarked) [Example 12, 3,5-Dichloro-N-(6-(3,3-dimethylbutyl)-6-azaspiro[2.5]octan-1-yl)benzamide], the IC50 on Cav3.2 channel turned out to be 50 nM. The “left hindpaw withdrawal latency to thermal stimulation (hyperalgesia)” value (“left hindpaw withdrawal latency” for short) in the test on SNI mice [1] is listed as “produced analgesic effects; also recorded: reduced hyperalgesia”. For the same compound, the “mechanical pain threshold of left hindpaw (allodynia)” value in the test on SNI mice [2] was “produced analgesic effects; also recorded: reduced allodynia”.

For `CC(C)(C)NC(=O)CN1CCC2(CC1)CC2NC(=O)c1cc(C(F)(F)F)cc(C(F)(F)F)c1` (centres unmarked) [Example 16, N-(6-(2-(tert-Butylamino)-2-oxoethyl)-6-azaspiro[2.5]octan-1-yl)-3,5-bis(trifluoromethyl)benzamide], on Cav3.2 channel, the IC50 amounted to 120 nM. Besides, in the test on SNI mice [1], the “left hindpaw withdrawal latency” value is recorded as “produced analgesic effects; also recorded: reduced hyperalgesia”. Besides, in the test with SNI mice [2], the “mechanical pain threshold of left hindpaw (allodynia)” value was “produced analgesic effects; also recorded: reduced allodynia”.

In the case of `CC(C)CN1CCC2(CC1)CC2NC(=O)c1cc(Cl)cc(Cl)c1` (centres unmarked) [Example 11, 3,5-Dichloro-N-(6-isobutyl-6-azaspiro[2.5]octan-1-yl)benzamide], on Cav3.2 channel, the concentration for half-maximal inhibition (IC50) turned out to be 420 nM. Also, the “left hindpaw withdrawal latency” value in the test on SNI mice [1] is “produced analgesic effects; also recorded: reduced hyperalgesia”. The “mechanical pain threshold of left hindpaw (allodynia)” value in the test on SNI mice [2] is “produced analgesic effects; also recorded: reduced allodynia”.

For `CC(C)(C)OCCN1CCC2(CC1)CC2NC(=O)c1cc(Cl)cc(Cl)c1` (centres unmarked) [Example 38, N-(6-(2-(tert-Butoxy)ethyl)-6-azaspiro[2.5]octan-1-yl)-3,5-dichlorobenzamide], at Cav3.2 channel, the IC50 was determined as 40 nM. The “left hindpaw withdrawal latency” value in the test on SNI mice [1] is “produced analgesic effects; also recorded: reduced hyperalgesia”. For the same compound, in the test on SNI mice [2], the “mechanical pain threshold of left hindpaw (allodynia)” value is on record as “produced analgesic effects; also recorded: reduced allodynia”.

For `O=C(NC1CC12CCN(CC(c1ccccc1)c1ccccc1)CC2)c1cc(Cl)cc(Cl)c1` (centres unmarked) [Example 39, 3,5-Dichloro-N-(6-(2,2-diphenylethyl)-6-azaspiro[2.5]octan-1-yl)benzamide], the IC50 on Cav3.2 channel came out at 60 nM. Further, the “left hindpaw withdrawal latency” value in the test on SNI mice [1] was “produced analgesic effects; also recorded: reduced hyperalgesia”. Further, the “mechanical pain threshold of left hindpaw (allodynia)” value in the test on SNI mice [2] is reported as “produced analgesic effects; also recorded: reduced allodynia”.

Broadly, the inhibition is the change of the read-out against control, counted positive when it falls. Read a low inhibition as a weak effect. `CC(C)(C)NC(=O)CN1CCC(CNC(=O)c2ccccc2)CC1` [Example 96, N-((1-(2-(tert-Butylamino)-2-oxoethyl)piperidin-4-yl)methyl)benzamide] showed an inhibition at 1 µM at Cav3.2 channel of 40%. Further, the “mechanical pain threshold, CFA-induced inflammation” value with CFA mice (30 mg/kg I.P.) is “showed an analgesic effect in mechanical pain”.

For the compound `CC(C)(C)NC(=O)CN1CCC2(CC[C@H]2NC(=O)c2cc(Cl)cc(Cl)c2)CC1` [Example 113, (R)—N-(7-(2-(tert-Butylamino)-2-oxoethyl)-7-azaspiro[3.5]nonan-1-yl)-3,5-dichlorobenzamide], at Cav3.2 channel, the IC50 worked out at 640 nM. In the test with SNI mice [1], the “left hindpaw withdrawal latency” value is listed as “produced analgesic effects; also recorded: reduced hyperalgesia”. The “mechanical pain threshold of left hindpaw (allodynia)” value in the test on SNI mice [2] is on record as “produced analgesic effects; also recorded: reduced allodynia”.

`CC(C)(C)CCN1CCC2(CC1)CC2NC(=O)c1cc(C(F)(F)F)cc(C(F)(F)F)c1` (centres unmarked) [Example 19, N-(6-(3,3-Dimethylbutyl)-6-azaspiro[2.5]octan-1-yl)-3,5-bis(trifluoromethyl)benzamide]: on Cav3.2 channel, the IC50 stood at 30 nM. Moreover, the “left hindpaw withdrawal latency” value with SNI mice [1] is reported as “produced analgesic effects; also recorded: reduced hyperalgesia”. Further, the “mechanical pain threshold of left hindpaw (allodynia)” value with SNI mice [2] was “produced analgesic effects; also recorded: reduced allodynia”.

In the case of `COc1ccc(CCN2CCC3(CC2)CC3NC(=O)c2cc(Cl)cc(Cl)c2)cc1` (centres unmarked) [Example 44, 3,5-Dichloro-N-(6-(4-methoxyphenethyl)-6-azaspiro[2.5]octan-1-yl)benzamide], the IC50 on Cav3.2 channel came to 100 nM. Also, in the test on SNI mice [1], the “left hindpaw withdrawal latency” value is on record as “produced analgesic effects; also recorded: reduced hyperalgesia”. The “mechanical pain threshold of left hindpaw (allodynia)” value in the test with SNI mice [2] is on record as “produced analgesic effects; also recorded: reduced allodynia”.

For `NCC1(CC(=O)O)CCCCC1` [gabapentin, reference compound], the “left hindpaw withdrawal latency” value in the test with SNI mice [1] is reported as “reduced hyperalgesia”. Also, the “mechanical pain threshold of left hindpaw (allodynia)” value in the test on SNI mice [2] is “reduced allodynia”. For the same compound, the “mechanical pain threshold, CFA-induced inflammation” value with CFA mice (100 mg/kg I.P.) is recorded as “showed an analgesic effect in mechanical pain”.

Turning to `CC(C)(C)NC(=O)CN1CCC2(CC1)CC2NC(=O)c1cc(Cl)cc(Cl)c1` (centres unmarked) [Example 14, N-(6-(2-(tert-Butylamino)-2-oxoethyl)-6-azaspiro[2.5]octan-1-yl)-3,5-dichlorobenzamide], on Cav3.2 channel, the IC50 was 30 nM. In addition, the “left hindpaw withdrawal latency” value with SNI mice [1] was “produced analgesic effects; also recorded: reduced hyperalgesia”. Moreover, the “mechanical pain threshold of left hindpaw (allodynia)” value in the test with SNI mice [2] is on record as “produced analgesic effects; also recorded: reduced allodynia”.

As to `O=C(N[C@@H]1CC12CCN(CC(O)c1ccc(C(F)(F)F)cc1)CC2)c1cc(F)cc(Cl)c1` (single isomer, unassigned) [Example 137, 3-Chloro-5-fluoro-N-((1R)-6-(2-hydroxy-2-(4-(trifluoromethyl)phenyl)ethyl)-6-azaspiro[2.5]octan-1-yl)benzamide or 3-Chloro-5-fluoro-N-((1S)-6-(2-hydroxy-2-(4-(trifluoromethyl)phenyl)ethyl)-6-azaspiro[2.5]octan-1-yl)benzamide], the IC50 on Cav3.2 channel was 70 nM.

For `CC(C)(C)CCN1CCC2(CC1)CC2NC(=O)c1ccc(Cl)s1` (centres unmarked) [Example 27, 5-Chloro-N-(6-(3,3-dimethylbutyl)-6-azaspiro[2.5]octan-1-yl)thiophene-2-carboxamide], the IC50 on Cav3.2 channel stood at 550 nM.

In turn, `COc1cccc(C(=O)NCC2(C)CCN(CC(=O)NC(C)(C)C)CC2)c1` [Example 108, N-((1-(2-(tert-butylamino)-2-oxoethyl)-4-methylpiperidin-4-yl)methyl)-3-methoxybenzamide] showed an inhibition at 1 µM against Cav3.2 channel of 53%.

As for `O=C(NC1CCC12CCN(CCc1ccccc1)CC2)c1ccccc1` (centres unmarked) [Example 62], the inhibition at 1 µM against Cav3.2 channel was found to be 68%. In the test with SNI mice [1], the “left hindpaw withdrawal latency” value was “produced analgesic effects; also recorded: reduced hyperalgesia”. The “mechanical pain threshold of left hindpaw (allodynia)” value with SNI mice [2] is “produced analgesic effects; also recorded: reduced allodynia”.

Source of the values: patent publication US10562857B2 (AFASCI, Inc., priority 2015, dated 2020).
